Reference: PMC4984800, “A first in man, dose-finding study of the mTORC1/mTORC2 inhibitor OSI-027 in patients with advanced solid malignancies” (British Journal of Cancer, 2016)
Entries after “also recorded” stand apart in the source; their conditions may differ.

Columns and labels:
[1] = rodents; preclinical; cited from earlier work
[2] = system: advanced solid tumours; experiment: Preliminary antitumour activity (RECIST); type: in vivo, human
Experimental: Assessments by imaging techniques (CT and/or MRI) were performed every 8–12 weeks or earlier if clinically indicated. Descriptive statistics were used to summarise the safety data, including all patients who received at least one dose of OSI-027. All patients who completed the pharmacokinetic sampling were included in the PK analyses, which used descriptive statistics to summarise AUC0–∞, AUC0–t, Cmax, Clast, Tmax, Tlast, %AUC extrapolated, T1/2, clearance (Cl/F) and volume of distribution (Vz/F). Exploratory analysis were planned to correlate pharmacodynamics and pharmacokinetics. Response to treatment was evaluated according to Response Evaluation Criteria in Solid Tumors (RECIST) ([Therasse et al, 2000]).

[3] = First-in-human trial: dose-limiting toxicities, adverse events, tolerability; type: in vivo
Excerpt: Three different schedules of administration were investigated during the dose-escalation phase: once daily for three consecutive days every week (Schedule 1 (S1)), once weekly (Schedule 2 (S2)) and continuous once daily (Schedule 3 (S3)). The primary objective of the study was to determine MTD and recommend a dose and schedule of OSI-027 for phase 2 trials. Secondary objectives included tolerability, safety and pharmacokinetics profile, assessment of pharmacodynamics and preliminary antitumour activity.
Dose escalation was pursued independently for each schedule following a 3+3 design. Escalation was permitted if <33% patients on a dose level experienced dose-limiting toxicities (DLT), defined as any non-haematological adverse event grade ⩾3 (NCI-CTCAE v3) related with the study drug occurring during the first cycle of treatment (21 days), with the exception of […] fatigue, nausea, vomiting and/or diarrhoea. In addition, absolute reduction ⩾15% on LVEF was also considered DLT. MTD was defined as the immediately lower dose level to the one where ⩾33% of patients experienced DLT.
Adverse events and concomitant medications were recorded throughout the trial participation.
Guidelines for dose modifications were implemented; drug administration was halted and/or dose was reduced for creatinine increase grade ⩾2 and/or if absolute values of LVEF fell ⩾15% from baseline. Permanent treatment discontinuation was mandated for LVEF drops ⩾20%.

[4] = system: tumour xenograft models; set-up: method as in Bhagwat et al, 2011; Falcon et al, 2011; settings: ref Bhagwat et al, 2011, Falcon et al; cited from earlier work
[5] = system: p4EBP1 in tumour biopsies; experiment: Paired tumour biopsies: p4EBP1 immunohistochemistry; type: in vivo, human
Experimental: Drug-mediated inhibition of the mTORC1 and mTORC2 signalling was evaluated through assessing modulation of phospho-4EBP1 and phospho-PRAS40 in PBMC, as well as phospho-4EBP1 and phospho-S6 in tumour biopsies. Blood aliquots were collected prior to start dosing and at prespecified time points during the first course of treatment. Fresh tumour biopsies were obtained from selected patients during the dose escalation stage and from all patients in the expansion cohorts, at baseline and during cycle 1.
Drug-mediated inhibition of mTORC1 and mTORC2 signalling by OSI-027 was assessed by measuring inhibition of their effectors p4EBP1 (Thr37/46) and pPRAS40 (Thr246), respectively, in PBMC. In addition, paired tumour biopsies at screening and during first month of therapy were used to study target modulation.
In 21 cases, pre- and postdose paired tumour biopsies were amenable for PD studies.

[6] = metastatic colorectal cancer, S3–10 mg

COc1cccc2cc(-c3nc([C@H]4CC[C@H](C(=O)O)CC4)n4ncnc(N)c34)[nH]c12 [OSI-027]
maximum tolerated dose (MTD) in toxicology studies [1]: 20 mg kg^−1 per day
patients with stable disease at first follow-up radiological assessment ([2]; 8–12 weeks): 29.7%
RECIST responses (complete or partial) ([2]; all patients): No RECIST responses were recorded; also recorded: No complete or partial responses were observed
patients free of progression for ⩾24 weeks ([2]; all patients): six
patients with stable disease >6 months ([2]; all patients): 5%
reduction in the sum of target lesions diameters, single patient ([2]; metastatic GIST, S1–120 mg): 20%
time on therapy, single patient ([2]; metastatic GIST, S1–120 mg): 45 weeks
reduction in the size of the lesions, single patient [2, 6]: 18%
time on treatment, single patient [2, 6]: 49 weeks
time free of progression, single patient ([2]; metastatic uveal melanoma, S3–35 mg): 48 weeks
highest potentially feasible dose ([3]; S1, QD three consecutive days per week): 120 mg
MTD ([3]; S2, once weekly, 10 to 240 mg QWK tested): Dose escalation was discontinued before a formal MTD was reached
MTD ([3]; S3, continuous once daily): 30 mg QD
Maximum creatinine on treatment CTCAE grade 4, patients ([3]; human, in vivo): 0
creatinine rise (increase of at least one grade in CTCAE v3), patients ([3]; human, in vivo): 26%
cutaneous toxicities, mainly grade 1–2 macular or maculo-papular rash, patients ([3]; human, in vivo): 25%
patients who discontinued drug permanently due to drug-related adverse events ([3]; human, in vivo): 8.1%
patients with a grade ⩾3 drug-related event ([3]; human, in vivo): 17%
patients with a drop in the LVEF ([3]; human, in vivo, 3 weeks): 38%
Dose limiting toxicity ([3]; human, in vivo, 12 days): Elevated serum creatinine (G2)
Dose limiting toxicity ([3]; human, in vivo, 13 days): Fatigue (G3)
Dose limiting toxicity ([3]; human, in vivo, 14 days): Bone pain (G3)
Dose limiting toxicity ([3]; human, in vivo, 15 days): Stress-induced cardiomyopathy (G3)
DLT grade 2 decreased LVEF ([3]; human, in vivo, 21 days): 1 events
DLT grade 3 bone pain ([3]; human, in vivo, 21 days): 1 events
DLT grade 3 cardiomyopathy ([3]; human, in vivo, 21 days): 1 events
DLT grade 3 fatigue ([3]; human, in vivo, 21 days): 4 events
DLT grade 3 hyperglycaemia ([3]; human, in vivo, 21 days): 1 events
DLT grade 3 maculo-papular rash ([3]; human, in vivo, 21 days): 1 events
DLT grade ⩾2 creatinine rise ([3]; human, in vivo, 21 days): 2 events
Dose limiting toxicity ([3]; human, in vivo, 21 days): Urticaria (G3)
patients with dose-limiting toxicities (DLT) ([3]; human, in vivo, 21 days): 11 patients
Dose limiting toxicity ([3]; human, in vivo, 22 days): Decreased LVEF (G2)
patients needing a dose reduction ([3]; in vivo): over half of the patients
individuals who died during study participation ([3]; including post-treatment 30 days follow-up, none judged drug-related): eight
anti tumour activity in tumour xenograft models [4]: anti tumour activity was documented
average reduction in p4EBP1 IHC staining ([5]; 90 mg—S1, paired tumour biopsies): 22.3%
average reduction in p4EBP1 IHC staining ([5]; 120 mg—S1, paired tumour biopsies): 49.5%
average reduction in p4EBP1 IHC staining ([5]; 240 mg—S2, paired tumour biopsies): 67.6%
